Laboratory results published in patent US20240294498A1, “FACTOR XIIA INHIBITORS” (Lunac Therapeutics Ltd, priority 2021, published 2024).
pKi: −log10 of the molar value.

Legend:
Type in all cases: biochemical
FXa = FXa (Homo sapiens, UniProt P00742); test: Determination of selectivity: FXa inhibition (chromogenic substrate S2765); conditions: fold selectivity for FXIIa over FXa (human); category
Method: (§1) The activities of the compounds of the invention have been determined in vitro using the following assays protocols for the screening of activity of FXIIa and other proteases. Each of these assays were performed in a purified system employing the use of chromogenic assays in microplate plate wells. Chromogenic peptide substrates mimicking natural protein substrates are attached via an amide bond to a chromogenic group. Paranitroaniline (pNA) is released from the peptide following catalyses by the proteolytic enzyme; the absorbance increases and can be monitored at 405 nm.
(§2) All compounds were dissolved in 100% (v/v) DMSO to a stock concentration of 10 mM, the highest concentration of compound used in each assay is 500 μM. The final concentrations of DMSO were 5% (v/v) in 50 mM Tris 137 mM NaCl pH 7.4. Where no test compound was added a final concentration of 5% DMSO was employed.
(§3) To determine selectivity of test compounds, these test compounds were assayed for inhibitory activity against other serine proteases including FXa and thrombin. Essentially compounds at increasing concentrations were incubated with each enzyme: FXa (5 nM) and thrombin (5 nM), for 10 mins at 37° C. followed by the appropriate chromogenic substrate, S2765 (Chromogenix) and GPR (Bachem) respectively in 50 mM Tris, 137 mM NaCl, pH 7.4. Substrates were used at a concentration equal to the appropriate experimentally derived KM. Kinetic readings at 405 nm were monitored every 12 secs for a total duration of 3 hours at 37° C. Gradients of initial rates were determined and employed to calculate IC50 values. Values of IC50 were converted to Ki values based on the formula:
(§4) Ki═IC50/(1+[Substrate]/Km)
(§5) Where [Substrate] denotes the concentration of substrate used in the assay and Km is the determined value of each enzyme with its own substrate.
The fold selectivity for FXIIa over FXa for the compounds of the invention has been categorised based on the fold selectivity values, the categories being “o”, “oo” and “ooo”. The category “o” refers to fold selectivity values less than 10 (e.g. a fold selectivity value of less than 10 and greater than 1). The category “oo” refers to a fold selectivity value of 10 to 100. The category “ooo” refers to fold selectivity values greater than 100.

thrombin = target: T1, thrombin (Homo sapiens, UniProt P00734); test: Determination of selectivity: thrombin inhibition (chromogenic substrate GPR); conditions: fold selectivity for FXIIa over thrombin (human); category
T1 construct: FXa (5 nM) and thrombin (5 nM)
Method: as §1, §2, §3, §4, §5
The fold selectivity for FXIIa over thrombin for the compounds of the invention has been categorised based on the fold selectivity values, the categories being “+”, “++” and “+++”. The category “+” refers to fold selectivity values less than 10 (e.g. a fold selectivity value of less than 10 and greater than 1). The category “++” refers to a fold selectivity value of 10 to 100. The category “+++” refers to fold selectivity values greater than 100.

FXIIa = target: T2, FXIIa (Homo sapiens, UniProt P00748); test: Determination of Factor XIIa inhibition (chromogenic substrate S-2302); conditions: human FXIIa alpha, Ki category
T2 construct: FXIIa alpha
T2 sequence (P00748 373-615 limits assumed): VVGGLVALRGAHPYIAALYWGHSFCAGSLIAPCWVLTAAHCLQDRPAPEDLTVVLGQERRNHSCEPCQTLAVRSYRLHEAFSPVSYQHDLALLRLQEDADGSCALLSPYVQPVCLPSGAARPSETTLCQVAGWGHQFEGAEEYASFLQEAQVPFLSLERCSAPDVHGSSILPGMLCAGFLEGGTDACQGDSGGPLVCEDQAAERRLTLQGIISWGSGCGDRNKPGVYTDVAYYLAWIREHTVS
T2 sequence (P00748 20-372 partner limits assumed): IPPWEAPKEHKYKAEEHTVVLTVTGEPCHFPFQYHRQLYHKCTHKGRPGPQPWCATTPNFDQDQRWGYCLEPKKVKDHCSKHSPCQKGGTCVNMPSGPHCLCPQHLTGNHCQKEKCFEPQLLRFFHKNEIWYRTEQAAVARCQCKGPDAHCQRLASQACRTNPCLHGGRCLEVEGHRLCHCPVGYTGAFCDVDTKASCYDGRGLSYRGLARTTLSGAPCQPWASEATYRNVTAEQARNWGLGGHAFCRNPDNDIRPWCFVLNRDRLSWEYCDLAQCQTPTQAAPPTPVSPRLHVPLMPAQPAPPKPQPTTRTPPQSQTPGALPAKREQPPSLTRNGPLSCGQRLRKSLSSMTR
Method: as §1, §2
Factor XIIa activity was measured using a chromogenic substrate S-2302 (Chromogenix). Various concentrations of compound were incubated with 10 nM of FXIIa and incubated at 37° C. for 10 minutes in 50 mM Tris, 137 mM NaCl, pH 7.4, prior to the addition of the chromogenic substrate S-2302 at a concentration equal the to the experimentally derived KM. Kinetic readings at 405 nm were monitored every 12 secs for a total duration of 3 hours at 37° C. Gradients of initial rates were determined and employed to calculate IC50 values.
The activity of the compounds of the invention has been categorised based on the Ki values, the categories being “†”, “*”, “**” and “***”. […] The category “**” refers to compounds with a Ki value of 0.2 μM to 0.8 μM.
as §4, §5

FXa, sequence (P00742 235-488 limits assumed): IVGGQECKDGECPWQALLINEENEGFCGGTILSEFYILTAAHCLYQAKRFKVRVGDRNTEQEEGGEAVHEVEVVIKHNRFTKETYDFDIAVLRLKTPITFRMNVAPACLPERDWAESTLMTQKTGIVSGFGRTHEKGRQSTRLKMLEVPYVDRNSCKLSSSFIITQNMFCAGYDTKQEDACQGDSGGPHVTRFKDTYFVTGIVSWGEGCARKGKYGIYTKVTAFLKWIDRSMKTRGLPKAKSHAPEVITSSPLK
FXa, sequence (P00742 41-179 partner limits assumed): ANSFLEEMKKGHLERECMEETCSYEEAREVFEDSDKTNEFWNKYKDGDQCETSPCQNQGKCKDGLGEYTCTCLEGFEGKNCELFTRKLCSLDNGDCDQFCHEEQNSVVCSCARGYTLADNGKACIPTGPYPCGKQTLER

FXa (human)/FXIIa alpha (human) (FXa) | pKi (FXIIa) | Compound | Thrombin (human)/FXIIa alpha (human) (thrombin)
∘∘∘ | > 6.70 | O=C(NCc1cc2cnccc2[nH]1)[C@@H]1C[C@H](C(F)(F)F)CN1C(=O)[C@@H]1NCCC[C@@H]1C(=O)N1CCCC1 [Example M05720, (2S,4S)-N-((1H-pyrrolo[3,2-c]pyridin-2-yl)methyl)-1-((2R,3S)-3-(pyrrolidine-1-carbonyl)piperidine-2-carbonyl)-4-(trifluoromethyl)pyrrolidine-2-carboxamide] | +++ (fold selectivity values greater than 100)
∘∘∘ | > 6.70 | Cc1ccc(C[C@@H]2C[C@@H](C(=O)NCc3ccc4c(cnn4C)c3)N(C(=O)[C@@H]3NCCC[C@@H]3C(=O)N3CCCCC3)C2)cc1 [Example M05733, (2S,4R)-N-((1-methyl-1H-indazol-5-yl)methyl)-4-(4-methylbenzyl)-1-((2R,3S)-3-(piperidine-1-carbonyl)piperidine-2-carbonyl)pyrrolidine-2-carboxamide] | ++ (a fold selectivity value of 10 to 100)
∘∘∘ | > 6.70 | Cc1ccc(C[C@@H]2C[C@@H](C(=O)NCc3ccc4c(cnn4C)c3)N(C(=O)[C@@H]3NCCC[C@@H]3C(=O)N3CCC[C@@H]3C(F)(F)F)C2)cc1 [Example M05747, (2S,4R)-N-((1-methyl-1H-indazol-5-yl)methyl)-4-(4-methylbenzyl)-1-((2R,3S)-3-((R)-2-(trifluoromethyl)pyrrolidine-1-carbonyl)piperidine-2-carbonyl)pyrrolidine-2-carboxamide] | +++ (fold selectivity values greater than 100)
∘∘∘ | 5.30 to 6.10 | Cc1ccc(C[C@@H]2C[C@@H](C(=O)NCc3ccc4[nH]ncc4c3)N(C(=O)[C@@H]3NCCC[C@@H]3C(=O)N3CCCC3)C2)cc1 [Example M05748, (2S,4R)-N-((1H-indazol-5-yl)methyl)-4-(4-methylbenzyl)-1-((2R,3S)-3-(pyrrolidine-1-carbonyl)piperidine-2-carbonyl)pyrrolidine-2-carboxamide] | ++ (a fold selectivity value of 10 to 100)
∘∘∘ | 6.10 to 6.70 | Cc1ccc(C[C@@H]2C[C@@H](C(=O)NCc3ccc4c(cnn4C)c3)N(C(=O)[C@@H]3NCCC[C@@H]3C(=O)N(C)C)C2)cc1 [Example M05751, (2R,3S)-N,N-dimethyl-2-((2S,4R)-2-(((1-methyl-1H-indazol-5-yl)methyl)carbamoyl)-4-(4-methylbenzyl)pyrrlidine-1-carbonyl)piperidine-3-carboxamide] | +++ (fold selectivity values greater than 100)
∘∘∘ | > 6.70 | Cc1ccc(C[C@@H]2C[C@@H](C(=O)NCc3ccc4c(cnn4C)c3)N(C(=O)[C@@H]3NCCC[C@@H]3C(=O)N(C)C3CC3)C2)cc1 [Example M05752, (2R,3S)-N-cyclopropyl-N-methyl-2-((2S,4R)-2-(((1-methyl-1H-indazol-5-yl)methyl)carbamoyl)-4-(4-methylbenyl)pyrrolidine-1-carbonyl)piperidine-3-carboxamide] | ++ (a fold selectivity value of 10 to 100)
∘∘∘ | 6.10 to 6.70 | Cc1ccc(C[C@@H]2C[C@@H](C(=O)NCc3ccc4c(cnn4C)c3)N(C(=O)[C@@H]3NCCC[C@@H]3C(=O)N3CCOCC3)C2)cc1 [Example M05753, (2S,4R)—N-((1-methyl-1H-indazol-5-yl)methyl)-4-(4-methylbenzyl)-1-((2R,3S)-3-(morpholine-4-carbonyl)piperidine-2-carbonyl)pyrrolidine-2-carboxamide] | ++ (a fold selectivity value of 10 to 100)
